Measurements taken from patent US20040143025A1, “Carbon monoxide generating compunds for treatment of vascular, inflammatory and immune disorders” (priority 2002, published 2004).

Assays:
allogeneic OLTs = experiment: In vivo detection of apoptosis in OLTs; parameters: species or system rat; details: day 10 post-transplant
Description: In vivo detection of apoptosis. A commercial in situ histochemical assay (Klenow-FragEL, Oncogene Research Products, Cambridge, Mass.) was performed to detect the DNA fragmentation characteristic of apoptosis in formalin-fixed paraffin-embedded tissue sections. In this assay, Kienow binds to exposed ends of DNA fragments generated in response to apoptotic signals and catalyzes the template-dependent addition of biotin-labeled and unlabeled deoxynucleotides. Biotinylated nucleotides are detected using a streptavidin-horse radish peroxidase (HRP) conjugate. Diaminobenzidine reacts with the labeled sample to generate an insoluble colored substrate at the site of DNA fragmentation. Counterstaining with methyl green aids in the morphological evaluation and characterization of normal and apoptotic cells. The results were scored semi-quantitatively by averaging the number of apoptotic cells per microscopic field at 200× magnification. Six fields were evaluated per tissue sample. All data are expressed as mean±SD.

[1] = test system: Louvain rats immunized with collagen type II; experiment: Rat collagen-arthritis model; assay type: in vivo; parameters: arthritic score / Arthritis Score / X-Ray Score: scale not given here
Description: To assess the therapeutic potential of methylene chloride as a carbon-monoxide generating compound in this disease model, female Louvain rats weighing between 120 and 150 g were injected intradermally with 0.5 mg native chicken collagen type II solubilized in 0.1M acetic acid and emulsified in incomplete Freund's adjuvant. At the onset of disease (around day 10) animals were divided into three groups. One group was treated daily with vehicle, the second and third groups with 100 mg/kg/day and 500 mg/kg/day methylene chloride (p.o.). Severity of disease was evaluated daily using a quantification method based on standardized levels of swelling and periarticular erythema. Animals were sacrificed on day 28. […] Compared to control animals these differences were statistically significant (p<0.02).
Iodoform and bromoform were compared with methylene chloride as alternative carbon monoxide generating compounds, using the rat collagen arthritis model described in Example 6 above. Briefly, arthritis was induced in a Lovain strain of rats by immunizing the animals with Collagen Type II in Incomplete Freund's Adjuvant. Digitized radiographs were obtained at the completion of the study on day 28. Pharmacokinetics were also determined and the synovial tissue from the inflamed joints of the treated animals was harvested on Day 16 or Day 28 post-immunization. Disease systems were generally evident by Day 10.

Myeloperoxidase (MPO) = Myeloperoxidase (MPO) assay, neutrophil activity in liver tissue; parameters: species or system Sprague Dawley (SD) rats; details: liver tissue at conclusion of 2 h reperfusion with CO
Description: Myeloperoxidase (MPO) assay. MPO is a naturally occurring constituent of neutrophils and is used as a marker for neutrophil infiltration. Frozen tissue samples were thawed and suspended in an iced solution of 0.5% hexadecyltrimethyl-ammonium (Sigma) and 50 mMol potassium phosphate buffer solution (Sigma) with pH adjusted to 5. Samples are homogenized for 30 sec, centrifuged at 15,000 rpm for 15 min at 4° C. 0.1 ml of the supernatant was then mixed in solution of hydrogen peroxide-sodium acetate and tetramethyl benzidine (Sigma). The change in absorbance at 460 run was measured with a Beckman DU spectrophotometer (Beckman Institute, Fullerton, Calif.). The quantity of enzyme degrading 1 μMol peroxide per minute at 25° C. per gram of tissue was defined as one unit of MPO activity.

HO-1 [2] = experiment: ELISA for HO-1 protein expression in liver; parameters: species or system rat; details: ZnPP = pretreatment then CO perfusion; CO = CO only
Description: ELISA for HO-1 protein expression. Livers were homogenized on ice in a Tris-HCl lysis buffer (pH 7.4) containing 0.5% Triton X-100 and protease inhibitors. Flat-bottom microtiter 96-well plates (Nunc) were coated with 7 μg/ml anti-HO-1 mAb (OSA-111, Stressgen, Canada) in PBS for 18 h at room temperature. Unbound Ab was removed by washing (wash buffer: 0.05% Tween 20 in 50 mM phosphate buffer, pH 7.5) and remaining binding sites were blocked by incubation with a 5% BSA/PBS solution (1 h). Recombinant HO-1 (SPP-730) and tissue homogenate were diluted in assay diluent (0.5% BSA/0.05% Tween 20/PBS) and incubated in anti-HO-1 mAb coated wells for 1 h at room temperature. Subsequently, plates were washed three times with wash buffer and incubated with rabbit anti-HO-1 polyclonal antibody (SPA-895, Stressgen; diluted 1:1000 in assay diluent) for 30 min at room temperature. Bound rabbit IgG was detected with a donkey anti-rabbit (gG-HRP conjugate (711-035-152, Jackson Research Laboratories; diluted 1:8000 in assay diluent). Unbound secondary Ab was removed by washing and bound HRP was detected using 1 mg/ml OPD in substrate buffer (0.1% H2O2, 0.1 M citric acid, 0.2 M Na2HPO4, pH 5.0). The color reaction was stopped with 1 M HCl and the optical density at 490 nm was measured.

HO-1 [3] = experiment: Western blot of liver samples, HO-1; parameters: species or system rat; details: 2 h after perfusion
Description: (§1) Western blots. Protein was extracted from liver samples with PBSTDS buffer (50 mM Tris, 150 mM NaCl, 0.1% SDS, 1% sodium deoxycholate, and 1% triton X-100, pH 7.2). Proteins (30 μg/sample) in SDS-loading buffer (50 mM Tris, pH 7.6, 10% glycerol, 1% SDS) were subjected to 12% SDS-polyacrylamide gel electrophoresis and transferred to nitrocellulose membrane (Bio-Rad, Hercules, Calif.). The gel was stained with coomassie blue to document equal protein loading. The membrane was blocked with 3% dry milk and 0.1% Tween 20 (USB, Cleveland, Ohio) in PBS and incubated with rabbit anti-rat HO-1 or iNOS polyclonal Abs (SangStat, Fremont, Calif.). Relative protein quantities were determined using a densitometer (Kodak Digital Science 1D Analysis Software, Rochester, N.Y.).

iNOS = experiment: Western blot of liver samples, iNOS; parameters: species or system rat; details: 2 h reperfusion
Description: as §1

Compound: ClCCl [methylene chloride]
- TUNEL+ cells/field in allogeneic OLTs (allogeneic OLTs): 4.5±2.3
- X-ray score (bone erosion) ([1]; methylene chloride 100 mg/kg/day): 2.7+/−0.8
- arthritic score (mean+/−standard error) ([1]; methylene chloride 100 mg/kg/day p.o., end of study (day 28)): 3.8+/−1.0
- X-ray score (bone erosion) ([1]; methylene chloride 500 mg/kg/day): 1.8+/−0.7
- arthritic score ([1]; methylene chloride 500 mg/kg/day p.o., end of study (day 28)): 2.75

Compound: [C-]#[O+] [CO, carbon monoxide]
- MPO activity (Myeloperoxidase (MPO)): 1.3±0.2 U/mg
- HO-1 protein expression in liver samples (ELISA) (HO-1 [2]): 7.51±2.13 ng of HO-1/mg lysate
- HO-1 protein accentuated (Western blot) vs air alone (HO-1 [3]): ca. 3 fold
- iNOS expression (Western blot) (iNOS): no detectable bands
